Consider one compound from patent US20090306612A1, “ABSORBENT ARTICLE” (SCA HYGIENE PRODUCTS AB, priority 2006, published 2009).

Holding throughout (format): cell-based
The subject of assay [1] is E. coli. The experiment in a line: Bacterial growth in absorbent cores (method 4), E. coli. How it is done: (§1) 16 ml (corresponding to a maximum absorption capacity of a test specimen according to method 1) of test liquid 1 containing the bacteria were added to a test specimen placed in plastic tubs, and a lid was fitted on the tubs. The tubs were turned upside down and incubated in a warm cabinet at 35° C. After incubation for 0, 6 and 12 hours, the test samples were placed in a plastic bag with peptone water and the content was homogenized (agitated and worked up) in a stomacker for 3 minutes. The homogenate was diluted in dilution tubes with peptone water and a microbiological culture was spread on agar plates. Slanetz Bartley agar was used for E. faecalis, and Drigalski agar for E. coli and P. mirabilis. The specimens were incubated at 35° C. for 1-2 days before the colonies were counted and the log CFU/ml calculated. Control tests were also carried out with absorbent cores without NaCl.
(§2) Bacteria were cultured in nutrient broth and diluted to the desired concentration of about Log 3.3 in test liquid 1 (method 4). Absorbent test specimens were produced according to method 1. […] The bacterial growth was measured according to method 4.
(§3) Absorbent cores were produced according to method 1. […] The bacterial growth of E. coli, P. mirabilis and E. faecalis was measured after 0, 6 and 12 hours according to method 4. […]

Assay [2] relates to P. mirabilis. The experiment in a line: Bacterial growth in absorbent cores (method 4), P. mirabilis. How it is done:
as §1, §2, §3

Assay [3] has as its system E. faecalis. In words: Bacterial growth in absorbent cores (method 4), E. faecalis. How it is done: as §1, §2, §3
The subject of assay [4] is Proteus mirabilis. In words: Ammonia formation in absorbent cores (method 3). To be noted: Example 2, FIG. 5; specimen containing 29% by weight of NaCl; after 6 and 8 hours. The method, then:
Absorbent test specimens were produced according to method 1. A bacterial suspension of Proteus mirabilis was cultured in nutrient solution at 30° C. overnight. The grafted cultures were diluted with test liquid 1 and the quantity of bacteria was determined. The final culture contained approximately 10^5 organisms per ml of test liquid. The absorbent core was placed in a plastic tub and test liquid 1 containing bacteria was added to the absorbent core, after which the container was incubated at 35° C. for 4, 6 and 8 hours, and then the specimens were removed from the container using a hand pump and a so-called Drager tube. The ammonia content was obtained as a color change on a scale graduated in ppm or percent by volume.
Absorbent test specimens were produced according to method 1. 16 ml, maximum absorption capacity, of test liquid 1 containing bacteria were added to a test specimen. 29 (high), 22 (medium) and 12 (low) % by weight of NaCl (% dry) and 22 (medium) % by weight of CaCl2 (% dry) were added to the core. The quantity of developed ammonia was measured according to method 3 after 6 and 8 hours. […]
Absorbent test specimens were produced according to method 1. […] The quantity of added pH-reducing substance was 5% by weight of the pulp. […] The quantity of developed ammonia was measured according to method 3 after 6 and 8 hours.

Where [5] appears, read: 3% added salt (% wet) = 29% by weight (% dry), NaCl high in FIG. 4, 12 hours, 35° C., 16 ml test liquid 1 (maximum load), start about Log 3.3, method counts log CFU/ml.
Where [6] appears, read: Example 1, FIG. 4, 29, 22 and 12% by weight NaCl (% dry), after 6 and 12 hours, inhibition better with higher salt content.

Molecules are shown by their SMILES. Where only a bound is given, the exact number is not on record here.

Take `[Cl-].[Na+]` [NaCl]: in assay [1] (setting [5]), the “growth of E. coli after 12 hours” value is given as below 5.5 log. For the same compound, the “growth of E. coli compared with the control tests” value in assay [1] (setting [6]) is listed as “lower”. Further, the “growth of P. mirabilis after 12 hours” value in assay [2] (setting [5]) is listed as below 5.5 log. Further, the “growth of P. mirabilis compared with the control tests” value in assay [2] (setting [6]) is “lower”. Moreover, in assay [3] (setting [5]), the “growth of E. faecalis after 12 hours” value is recorded as below 5.5 log. Besides, the “growth of E. faecalis compared with the control tests” value in assay [3] (setting [6]) is listed as “lower”. In addition, the “development of NH3, ranking among the specimens” value in assay [4] was “lowest development of NH3”.
